Holding throughout (format): in vivo
For one assay, the system named is Spodoptera littoralis. In words: Binary choice glass-fiber disc feeding bioassay (Feeding Index). To be noted: for Feeding Index: n = 15; for Feeding response in words, in combination with glucose: glucose 0.05M; for Feeding response in words, in combination with glucose / Feeding response in words, in combination with sucrose: 100, 1000 and 10,000 ppm; for Feeding response in words, in combination with sucrose: sucrose 0.05M. Here is the method: All experiments were done on the final stage larvae of Spodoptera littoralis. Prior to the experiment, the insects were deprived of food for 2 hours. This has been calculated as a period when most insects would commence feeding. Thus, the food from the previous meal has started to pass into and through the gut. The initial experiment investigated whether the insects could “taste” the plant preparations or extracts and whether they stimulated or deterred feeding. […] A negative value indicates a phagostimulant and a positive value indicates an appetite suppressant. Experiments are usually repeated with between 10-20 insects and the data are analysed using the Wilcoxon matched pairs test. A series of controls were used at the start of the experiment to illustrate the difference in the response of the larvae to sucrose and glucose both tested at 0.05M. Results have been presented as means.

Assay [1] deals with medial sensilla of Spodoptera littoralis larvae. In words: Electrophysiology: neural response of the medial sensilla after cannulation. Conditions: for Impulses per second from the medial styloconic sensilla, stimulus C: stimulus KCl (0.05M); for Impulses per second from the medial styloconic sensilla, stimulus P: stimulus amino acid mixture; for Impulses per second from the medial styloconic sensilla, stimulus G: stimulus glucose (0.05M); for Impulses per second from the medial styloconic sensilla, stimulus S: stimulus sucrose (0.05M). From the text: Insects use sensilla on their mouthparts to taste their food. These sensilla contain neurones that respond to compounds in their food. An electrophysiological bioassay has been developed to record the neural impulses from the four neurones in each sensilla. […] Previous experiments have shown that the responsiveness of the insects can be influenced by the diet an insect has been reared on and previous exposure to a compound. The physiological condition of the insect can also influence the responsiveness of these neurones. In these experiments, we […] classify the neurones down to specific neurones but this requires some further experiments not undertaken in this study. […] Each larva was tested with KCl (C=0.05M) as a control, sucrose (S=0.05M), glucose (G=0.05M) and amino acid mix (P=0.05M). A set of experiments were undertaken on a control non-cannulated group of insects. […] Prior to the experiment, the insects had been standardized as in the behavioral experiments.

The subject of assay [2] is larvae of Spodoptera littoralis. In words: Behavioral response of cannulated insects to glucose (latency, meal duration, time to second meal). Conditions: glucose treated disc, solvent water. As to the method: Material and methods. Final stage larvae were removed from food and after 2 hours, they were cannulated via the oral cavity with […] of a test solution, with water used as a control. The extracts were tested at 10,000 ppm, 1,000 ppm and 100 ppm. The insects were then placed in a Petri dish with a glucose treated glass-fiber disc. The time taken for the insects to start a meal (latency), the duration of a meal (meal duration) and the time taken to take the second meal were recorded. This provides information about whether the extracts once consumed would delay feeding, whether the extracts would alter the duration of a meal once it had started, and whether the time to the second meal would be altered. […] The time to the start of a meal was extended, when compared with the water control, after cannulation with Aloe and Ginseng. Aloe acted as stimulants in the glass-fiber disc bioassays, whereas Ginseng was a potent suppressant. Thus, the Ginseng could be having a negative activity on time to feed, whereas the response to Aloe could be because of a “positive” response. The end effect is the same in that both groups caused an increase in the latency to feed. […] None of the extracts influenced the duration of the first recorded meal.

Setting [3] is: in combination with glucose 0.05M, extract 100 ppm.
Where [4] appears, read: in combination with glucose 0.05M, extract 1,000 ppm.
The mark [5] stands for this setting: in combination with glucose 0.05M, extract 10,000 ppm.
The mark [6] stands for this setting: in combination with sucrose 0.05M, extract 100 ppm.
Setting [7] is: in combination with sucrose 0.05M, extract 1,000 ppm.
The mark [8] stands for this setting: in combination with sucrose 0.05M, extract 10,000 ppm.
The mark [9] stands for this setting: 30 min after cannulation at 1000 ppm.
Setting [10] is: 1 h after cannulation at 1000 ppm.

Marks after values point to notes of the source that are not given here. Residues, ends and D or L forms follow the SMILES beside them.

With `OC[C@H]1O[C@@](CO)(O[C@H]2O[C@H](CO)[C@@H](O)[C@H](O)[C@H]2O)[C@@H](O)[C@@H]1O` [Sucrose], the “Feeding Index” value in the assay with Spodoptera littoralis (control disc sucrose 0.05M versus treatment disc sucrose 0.05M, 18 hours) is 10.7%; with Spodoptera littoralis (control disc sucrose 0.05M versus untreated treatment disc, 18 hours), 46.3* %. In addition, in the assay on Spodoptera littoralis (sucrose versus glucose, both 0.05M), the “Phagostimulant potency in words” value is given as “more potent phagostimulant to S. littoralis than glucose”.

As for `O=C1NS(=O)(=O)c2ccccc21` [Saccharin], the “Feeding response in words, in combination with glucose” value in the assay on Spodoptera littoralis is “stimulated feeding at lower concentrations”. Also, the “Feeding Index” value in the assay with Spodoptera littoralis (setting [3]) was −24* %; with Spodoptera littoralis (setting [4]) it was −25* %; in the assay with Spodoptera littoralis (setting [5]), −18%; in the assay on Spodoptera littoralis (setting [6]) it was −16%; in the assay on Spodoptera littoralis (setting [7]), −5%; in the assay on Spodoptera littoralis (setting [8]), 5%. In addition, the “Feeding response in words, in combination with sucrose” value in the assay on Spodoptera littoralis is given as “not significant”. In addition, the “Impulses per second from the medial styloconic sensilla, stimulus C” value was 9 impulses per second in assay [1] (setting [9]) and 15 impulses per second in assay [1] (setting [10]). In addition, the results for the “Impulses per second from the medial styloconic sensilla, stimulus P” value in assay [1] (setting [9]) and in assay [1] (setting [10]) were 29 impulses per second and 47 impulses per second, respectively. Further, the “Impulses per second from the medial styloconic sensilla, stimulus G” value in assay [1] (setting [9]) came out at 45 impulses per second; in assay [1] (setting [10]) it was 28 impulses per second. The “Impulses per second from the medial styloconic sensilla, stimulus S” value in assay [1] (setting [9]) amounted to 65 impulses per second; in assay [1] (setting [10]), 48 impulses per second. The Latency in assay [2] (concentration 0.1k (100 ppm)) came out at 24 min; in assay [2] (concentration 1k (1,000 ppm)) it was 24 min; in assay [2] (concentration 10k (10,000 ppm)), 25 min. Further, the Meal duration came out at 16 min in assay [2] (concentration 0.1k (100 ppm)), 14 min in assay [2] (concentration 1k (1,000 ppm)) and 14 min in assay [2] (concentration 10k (10,000 ppm)). The “Time to 2nd meal” value was 11 min in assay [2] (concentration 0.1k (100 ppm)), 18 min in assay [2] (concentration 1k (1,000 ppm)) and 18 min in assay [2] (concentration 10k (10,000 ppm)).

Take `COC(=O)[C@H](Cc1ccccc1)NC(=O)[C@@H](N)CC(=O)O` [Aspartame] (H-Asp-Phe-OMe): the “Feeding response in words, in combination with glucose” value in the assay on Spodoptera littoralis is listed as “stimulated feeding at lower concentrations”. The “Feeding Index” value is reported as −25* % in the assay with Spodoptera littoralis (setting [3]); −31* % in the assay on Spodoptera littoralis (setting [4]); −24% in the assay with Spodoptera littoralis (setting [5]); −15% with Spodoptera littoralis (setting [6]); 14% with Spodoptera littoralis (setting [7]); 15% in the assay with Spodoptera littoralis (setting [8]). Also, in the assay on Spodoptera littoralis, the “Feeding response in words, in combination with sucrose” value is “not significant”. For the same molecule, the “Impulses per second from the medial styloconic sensilla, stimulus C” value is 10 impulses per second in assay [1] (setting [9]) and 12 impulses per second in assay [1] (setting [10]). Further, the “Impulses per second from the medial styloconic sensilla, stimulus P” value in assay [1] (setting [9]) and in assay [1] (setting [10]) was 24 impulses per second throughout. For the same molecule, the “Impulses per second from the medial styloconic sensilla, stimulus G” value was 45 impulses per second in assay [1] (setting [9]) and 25 impulses per second in assay [1] (setting [10]). Further, the “Impulses per second from the medial styloconic sensilla, stimulus S” value in assay [1] (setting [9]) worked out at 57 impulses per second; in assay [1] (setting [10]) it was 48 impulses per second. Moreover, the Latency in assay [2] (concentration 0.1k (100 ppm)) worked out at 21 min; in assay [2] (concentration 1k (1,000 ppm)) it was 24 min; in assay [2] (concentration 10k (10,000 ppm)), 20 min. Further, the Meal duration in assay [2] (concentration 0.1k (100 ppm)) was 17 min; in assay [2] (concentration 1k (1,000 ppm)), 12 min; in assay [2] (concentration 10k (10,000 ppm)), 12 min. Also, the entries for the “Time to 2nd meal” value in assay [2] (concentration 0.1k (100 ppm)), in assay [2] (concentration 1k (1,000 ppm)) and in assay [2] (concentration 10k (10,000 ppm)) were 15 min, 15 min and 17 min, respectively.

For the origin of these results see patent publication US20080220101A1, “COMPOSITIONS OF EXTRACTS OF ALOE FOR ORAL ADMINISTRATION” (priority 2007, published 2008).
